{"source": "patent US20120178625A1", "about": "“METHOD FOR REDUCING PISTILLATE FLOWER ABORTION IN PLANTS” (BASF SE, priority 2009, published 2012)", "tested_on": "walnut (Juglans regia cv. Serr)", "assay": "Control of PFA (pistillate flower abortion) field trial in a walnut orchard, Graneros, Chile (2008/2009)", "format": "in vivo", "details": "water 1500 l/ha", "text": "In the terms of the present invention, “reducing pistillate flower abortion in plants” refers to a reduction in the level of PFA. This reduction can be measured by determining a) the fruit set (%), b) the number of growing fruits (%) and/or c) the remaining fruits at harvest (%) (fruit yield). The higher the percentage of fruit set, growing fruits and/or remaining fruits at harvest, the lower the respective pistillate flower abortion. The trial was run in a walnut orchard (Juglans regia cv. Serr) located in Graneros, Chile in the year 2008. Trial design was completely randomized with 3 replicates per treatment. Each replicate had identified branches completing 100 female flowers. Remaining fruit were counted after fruit set and at harvest time. […] [table] […] As a consequence PFA was quite high, influencing adversely yields in orchard where no ethylene control was done.", "key": {"[1]": {"details": "Treatment No. 2: 0.5 l/ha, 2 applications (10% and 30% of pistillates flowering)"}, "[2]": {"details": "Treatment No. 5: 0.7 l/ha + 0.015% Break-Thru, 3 applications (10%, 30% and 50% of pistillates flowering)"}}}
{"smiles": "COC(=O)N(OC)c1ccccc1COc1ccn(-c2ccc(Cl)cc2)n1", "note": "[Pyraclostrobin, pyraclostrobin]", "values": [{"measurement": "Fruit set (%) (Oct. 23, 2008)", "setting": "[1]", "result": 54.0, "unit": "%"}, {"measurement": "Increase (%) compared to UTC, fruit set", "setting": "[1]", "result": "+108%"}, {"measurement": "Increase (%) compared to UTC, remaining fruits at harvest", "setting": "[1]", "result": "+106%"}, {"measurement": "Increase (%) compared to UTC, small growing fruits", "setting": "[1]", "result": "+104%"}, {"measurement": "Remaining fruits at harvest (%) (Mar. 03, 2009)", "setting": "[1]", "result": 46.0, "unit": "%"}, {"measurement": "Small growing fruits (%) (Nov. 10, 2008)", "setting": "[1]", "result": 46.3, "unit": "%"}, {"measurement": "Increase (%) compared to UTC, fruit set", "setting": "[2]", "result": "+165%"}, {"measurement": "Increase (%) compared to UTC, remaining fruits at harvest", "setting": "[2]", "result": "+200%"}, {"measurement": "Increase (%) compared to UTC, small growing fruits", "setting": "[2]", "result": "+201%"}]}
